The record followed here is patent US20110053897A1 (IRM LLC, priority 2009, published 2011).

The target of one assay is T1, Syk kinase (Homo sapiens, UniProt P43405).
T1 construct: purchased
As to the kind of experiment: Syk kinase inhibition, Caliper LabChip off-chip mobility-shift kinase assay. The format is biochemical. The settings on record: Caliper LabChip assay; read-out: Syk Enzyme IC50. The method, boiled down: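 Purified Syk pre-incubated 15 min with compound in 100 mM HEPES pH 7.5, 1 mM DTT, 10 mM MgCl2 or MnCl2, 0.002% Brij-35, then 1.5 μM fluorescein peptide and ATP at apparent KM added; 1–1.5 h at room temperature, 4% DMSO, EDTA stop. Microfluidic mobility-shift product/substrate conversion gave % inhibition; IC50 from 12-point series (10–0.00003 μM) by 4-parameter fit.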
As for `CC1(Nc2nc(Nc3cc(C(C)(C)O)ncn3)cc3ccn(CC(O)CO)c(=O)c23)CC1` (centres unmarked) [compound 729], the IC50 is 31 nM.

For `CC(C)(C)Nc1nc(-c2cnc(N)nc2)cc2ccn(CCN3CCOCC3)c(=O)c12` [compound 1033], the IC50 amounted to 60 nM. Same read-out and setting: in the case of `CC(C)(C)Nc1nc(Nc2cc(C(C)(F)F)ccn2)cc2ccn(CCO)c(=O)c12` [compound 874] it was 33 nM; in that of `CC(C)(C)Nc1nc(Nc2cc(-c3ccccc3)ccn2)cc2ccn(CCO)c(=O)c12` [compound 829], 271 nM; in that of `Nc1ncc(-c2cc3ccn(C4COC4)c(=O)c3c(NC3CCC3)n2)cn1` [compound 772], 25 nM. The same measure, in the same setting: in the case of `CC(C)(C)Nc1nc(Nc2cc(CO)ccn2)cc2ccn(CCO)c(=O)c12` [compound 693] it was 42 nM. Regarding `CC(C)(C)Nc1nc(Nc2cc(C3(O)CCC3)ccn2)cc2ccn(CCO)c(=O)c12` [compound 870], the IC50 is 76 nM. Still for that read-out and setting: in the case of `CC(C)(C)Nc1nc(Nc2cc(-c3ccc4cn[nH]c4c3)ccn2)cc2ccn(CCO)c(=O)c12` [compound 850] it was 559 nM. Consider `O=c1c2c(N[C@H]3CC[C@@H](O)CC3)nc(Nc3cnccn3)cc2ccn1CC(O)C(F)(F)F` (some centres unmarked) [compound 1012], for which the IC50 was 56 nM. On to `CC(C)(C)Nc1nc(Nc2cnccn2)cc2ccn(Cc3c[nH]nn3)c(=O)c12` [compound 881], for which the IC50 came out at 18 nM. Consider `CC(C)(C)Nc1nc(Nc2cc(-c3ccno3)ccn2)cc2ccn(CCO)c(=O)c12` [compound 689], for which the IC50 is 151 nM.

Take `O=c1c2c(NC3CCCC3)nc(Nc3cnccn3)cc2ccn1C[C@H](O)CO` [compound 775]: the IC50 worked out at 10 nM. On the same count and under the same terms, in the case of `CC(C)n1ccc2cc(Nc3cnccn3)nc(N[C@H]3CC[C@@H](CO)C3)c2c1=O` [compound 988] it was 3 nM. Consider `Cc1cn(CCO)c(=O)c2c(NC(C)(C)C)nc(-c3cnc(N)nc3)cc12` [compound 671], for which the half-inhibitory concentration (IC50) came out at 13 nM. The same measure, in the same setting: in the case of `CC(C)(C)Nc1nc(Nc2cc(CN)ccn2)cc2ccn(CCO)c(=O)c12` [compound 707] it was 59 nM; in that of `CC(C)(C)Nc1nc(Nc2cnccn2)cc2ccn(CCF)c(=O)c12` [compound 1001], 49 nM. Same read-out and setting: in the case of `CC(C)(C)Nc1nc(Nc2cc(-c3nc(CO)cs3)ccn2)cc2ccn(CCO)c(=O)c12` [compound 843] it was 82 nM.

Consider `NC(=O)Cn1ccc2cc(Nc3cnccn3)nc(NC3CCCC3)c2c1=O` [compound 752], for which the IC50 came out at 18 nM. The same measure, in the same setting: in the case of `CC(C)n1ccc2cc(Nc3c[n+]([O-])ccn3)nc(N[C@H]3CC[C@@H](O)CC3)c2c1=O` [compound 1016] it was 105 nM; in that of `CCn1ccc2cc(-c3cnc(N)nc3)nc(NC(C)(C)CCO)c2c1=O` [compound 1037], 14 nM; in that of `CCn1ccc2cc(Nc3cnccn3)nc(N[C@@H]3CC[C@H](CO)C3)c2c1=O` [compound 795], 51 nM. Same read-out and setting: in the case of `CC(C)(Nc1nc(Nc2cnccn2)cc2ccn(CCO)c(=O)c12)C1CC1` [compound 670] it was 89 nM.

Still in this assay, the particulars now being: read-out: Syk Enzyme IC50.
For `Cc1cc(-c2cc3cc[nH]c(=O)c3c(Nc3ccc(C4CCN(C5CC5)CC4)c(C)c3)n2)ccn1` [compound 212], the IC50 was 390 nM. Regarding `COc1cncc(-c2cc3cc[nH]c(=O)c3c(Nc3ccc4c(c3)C3CNCC4C3)n2)n1` (centres unmarked) [compound 96], the IC50 stood at 1660 nM. Same read-out and setting: in the case of `COCCNc1nc(-c2cnc(N)nc2)cc2cc[nH]c(=O)c12` [compound 447] it was 101 nM. On the same count and under the same terms, in the case of `CN1CCN([C@H]2CC[C@H](c3ccc(Nc4nc(-c5cncnc5)cc5cc[nH]c(=O)c45)cc3)CC2)CC1` [compound 103] it was 59 nM; in that of `Cc1ccc(Nc2cc3cc[nH]c(=O)c3c(Nc3ccc(C4CCN(CC(N)=O)CC4)c(C)c3)n2)nc1` [compound 558], 489 nM. Same read-out and setting: in the case of `COCC1(C(=O)N2CCC(c3ccc(Nc4nc(-c5cncc(OC)n5)cc5cc[nH]c(=O)c45)cc3C)CC2)CC1` [compound 16] it was 99 nM; in that of `CCN1CCN(CCc2ccc(Nc3nc(Nc4ccc(F)cn4)cc4cc[nH]c(=O)c34)cc2)CC1` [compound 580], 163 nM; in that of `Cc1ccnc(Nc2cc3ccn(CCO)c(=O)c3c(NC(C)(C)CO)n2)c1` [compound 495], 52 nM. Turning to `Cc1cc(Nc2nc(C(C)C)cc3cc[nH]c(=O)c23)ccc1C1CCN(C2CC2)CC1` [compound 231], the IC50 amounted to 864 nM. Turning to `COc1nc(-c2cc3cc[nH]c(=O)c3c(Nc3ccc(C4CCN(CCC#N)CC4)c(C)c3)n2)cnc1N` [compound 169], the IC50 came out at 29 nM.

As to `Cc1ccnc(Nc2cc3cc[nH]c(=O)c3c(NCCO)n2)c1` [compound 561], the IC50 turned out to be 501 nM.

As for `COc1cncc(-c2cc3cc[nH]c(=O)c3c(Nc3ccc(C4CCN(CCC(C)(C)C)CC4)c(C)c3)n2)n1` [compound 61], the IC50 turned out to be 158 nM. Same read-out and setting: in the case of `CS(=O)(=O)c1ccc(Nc2nc(Nc3cnccn3)cc3ccn(CCO)c(=O)c23)cc1` [compound 405] it was 235 nM; in that of `Cc1ccnc(Nc2cc3cc[nH]c(=O)c3c(NC(C)C)n2)c1` [compound 490], 32 nM; in that of `CCCNC(=O)c1ccc(Nc2nc(Nc3cc(C)ccn3)cc3ccn(C)c(=O)c23)cc1` [compound 363], 551 nM. In the case of `COc1cncc(-c2cc3cc[nH]c(=O)c3c(Nc3ccc4c(c3)C3CC4CN(C(=O)C(F)(F)F)C3)n2)n1` (centres unmarked) [compound 95], the IC50 was determined as 2370 nM. Still for that read-out and setting: in the case of `CCN1CCC[C@@H]1CNC(=O)c1ccc(Nc2nc(-c3cncc(OC)n3)cc3cc[nH]c(=O)c23)cc1` [compound 83] it was 14 nM; in that of `COc1cncc(-c2cc3cc[nH]c(=O)c3c(Nc3ccc(CCN4CCCN(C)CC4)cc3)n2)n1` [compound 434], 37 nM; in that of `COc1cncc(-c2cc3cc[nH]c(=O)c3c(Nc3ccc(C4CCN(CCC(N)=O)CC4)c(C)c3)n2)n1` [compound 158], 24 nM.

`COCCN1CCN(c2n[nH]c3cc(Nc4nc(-c5cncc(OC)n5)cc5cc[nH]c(=O)c45)ccc23)CC1` [compound 217]: the IC50 amounted to 29 nM. `CCOCCN1CCC(c2ccc(Nc3nc(-c4cncc(OC)n4)cc4cc[nH]c(=O)c34)cc2C)CC1` [compound 85]: the IC50 amounted to 78 nM.

For the compound `CCN1CCN(c2n[nH]c3cc(Nc4nc(-c5cnc(OC)nc5)cc5cc[nH]c(=O)c45)ccc23)CC1` [compound 201], the IC50 was 70 nM. On the same count and under the same terms, in the case of `Cn1ccc2cc(Nc3cnccn3)nc(Nc3cccc(S(C)(=O)=O)c3)c2c1=O` [compound 390] it was 751 nM; in that of `Nc1ncc(-c2cc3cc[nH]c(=O)c3c(NCC(F)(F)F)n2)cn1` [compound 450], 117 nM. Same read-out and setting: in the case of `Cn1ccc2cc(Nc3cnccn3)nc(NCC(F)(F)F)c2c1=O` [compound 464] it was 81 nM.

Turning to `COc1ncc(-c2cc3cc[nH]c(=O)c3c(Nc3ccc(C4CN(C)C4)cc3)n2)cn1` [compound 139], the IC50 turned out to be 34 nM. Same read-out and setting: in the case of `CCOC(=O)c1ccc(Nc2cc3cc[nH]c(=O)c3c(Nc3ccc(N4CCOCC4)cc3)n2)nc1` [compound 578] it was 186 nM. With `CCCN1CCC(c2ccc(Nc3nc(-c4cncc(OC)n4)cc4cc[nH]c(=O)c34)cc2C)CC1` [compound 55], the IC50 came out at 33 nM. On the same count and under the same terms, in the case of `CN(C)Cc1n[nH]c2cc(Nc3nc(-c4cncc(C(=O)N5CCOCC5)c4)cc4cc[nH]c(=O)c34)ccc12` [compound 205] it was 104 nM. Still for that read-out and setting: in the case of `CCC(C)Nc1nc(Nc2ccccn2)cc2cc[nH]c(=O)c12` (centres unmarked) [compound 263] it was 756 nM. Same read-out and setting: in the case of `Nc1ncc(-c2cc3cc[nH]c(=O)c3c(N[C@@H]3CCC[C@@H]3O)n2)cn1` [compound 182] it was 30 nM. Consider `CCN1CCN(CCc2ccc(Nc3nc(Nc4cc(C(F)(F)F)ccn4)cc4cc[nH]c(=O)c34)cc2)CC1` [compound 520], for which the IC50 turned out to be 183 nM. As to `COCCCc1cc2cc[nH]c(=O)c2c(Nc2ccc(C3CCN(C4CC4)CC3)c(C)c2)n1` [compound 238], the IC50 worked out at 1290 nM. Same read-out and setting: in the case of `CCn1ccc2cc(Nc3cnccn3)nc(N[C@@H]3CCC[C@@H]3O)c2c1=O` [compound 419] it was 94.4 nM; in that of `Cn1ccc2cc(Nc3cnccn3)nc(Nc3cccc(C(N)=O)c3)c2c1=O` [compound 477], 580 nM; in that of `Nc1nc(Nc2cnccn2)cc2ccn(Cc3ccccc3)c(=O)c12` [compound 478], 1630 nM. The same measure, in the same setting: in the case of `CC(=O)N1CCC(c2ccc(Nc3nc(Nc4cnccn4)cc4ccn(C)c(=O)c34)cc2)CC1` [compound 345] it was 1220 nM; in that of `O=c1[nH]ccc2cc(C3=CCNCC3)nc(Nc3ccc(N4CCOCC4)cc3)c12` [compound 88], 51 nM; in that of `Cc1cc(Nc2nc(-c3cncc(C(=O)N4CCOCC4)c3)cc3cc[nH]c(=O)c23)ccc1C1CCN(C2CC2)CC1` [compound 208], 112 nM. Still for that read-out and setting: in the case of `Cc1ccc(-c2cc3cc[nH]c(=O)c3c(Nc3ccc(C4CN(C)C4)cc3)n2)cn1` [compound 140] it was 27 nM; in that of `COc1ncc(-c2cc3cc[nH]c(=O)c3c(Nc3ccc(C4CNC4)cc3)n2)cn1` [compound 130], 57 nM.

Regarding `COc1cncc(-c2cc3cc[nH]c(=O)c3c(Nc3ccc(C4CCN(CCO)CC4)c(C)c3)n2)n1` [compound 143], the IC50 stood at 5 nM.

As for `Cc1cccnc1Nc1cc2cc[nH]c(=O)c2c(Nc2ccc(N3CCOCC3)cc2)n1` [compound 533], the IC50 was found to be 382 nM.

As to `CN1CCN(C2CCC(c3ccc(Nc4nc(-c5cncnc5)cc5cc[nH]c(=O)c45)cc3)CC2)CC1` (centres unmarked) [compound 104], the IC50 came to 31 nM. With `Cc1nc(-c2cc3cc[nH]c(=O)c3c(Nc3ccc([C@H]4CC[C@H](N5CCOCC5)CC4)cc3)n2)cnc1N` [compound 102], the IC50 came out at 226 nM.

On to `Cn1ccc2cc(Nc3cnccn3)nc(N[C@H]3CC[C@H](O)CC3)c2c1=O` [compound 358], for which the IC50 came to 49 nM.
